Experimental data: patent US7495104B2, “Quinoline or quinazoline derivatives inhibiting auto-phosphorylation of fibroblast growth factor receptors” (Kirin Beer Kabushiki Kaisha, priority 2001, dated 2009)

target: Bek (Homo sapiens, UniProt P21802); assay: Inhibitory activity against Bek-autophosphorylation using ELISA method in OCUM-2MD3 cells; format: cell-based; conditions: 1 hr with compound, read-out: IC50 (concentration necessary for inhibiting 50% of Bek-phosphorylation)
In short: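 OCUM-2MD3 human scirrhous gastric cancer cells in 0.1% FCS were exposed to compound for 1 hr at 37° C, then lysed. Phospho-tyrosine proteins were captured with anti-phosphotyrosine antibody, probed with anti-Bek antibody and peroxidase read-out (A450). Positive control (1000 nM) set 0%, untreated 100%; IC50 from multi-level dilutions.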

Chain of Bek (P21802 431-767 limits assumed): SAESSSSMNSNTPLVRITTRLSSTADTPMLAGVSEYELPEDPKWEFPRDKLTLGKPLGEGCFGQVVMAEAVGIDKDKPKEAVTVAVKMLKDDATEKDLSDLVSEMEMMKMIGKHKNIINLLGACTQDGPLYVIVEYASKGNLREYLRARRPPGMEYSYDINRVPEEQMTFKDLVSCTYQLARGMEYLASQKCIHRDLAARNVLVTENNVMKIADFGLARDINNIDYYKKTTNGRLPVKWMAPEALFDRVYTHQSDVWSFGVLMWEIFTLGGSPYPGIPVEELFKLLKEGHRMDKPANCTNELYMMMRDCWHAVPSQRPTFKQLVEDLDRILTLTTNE

Point of comparison: `COc1cc2c(Oc3ccc(NC(=O)NCCC(C)(C)C)c(Cl)c3)ccnc2cc1OCC(O)CN1CCCN(C)CC1` (centres unmarked) [Compound 196, 1-(2-Chloro-4-{7-[2-hydroxy-3-(4-methyl-[1,4]diazepan-1-yl)-propoxy]-6-methoxy-quinolin-4-yloxy}-phenyl)-3-(3,3-dimethyl-butyl)-urea], IC50 17.3 nM. Against it:
- COc1cc2c(Oc3ccc(NC(=O)NCCC(C)(C)C)c(Cl)c3)ccnc2cc1OCCN1CCCN(C)CC1 [Compound 186, 1-(2-Chloro-4-{6-methoxy-7-[2-(4-methyl-[1,4]diazepan-1-yl)-ethoxy]-quinolin-4-yloxy}-phenyl)-3-(3,3-dimethyl-butyl)-urea] — within 1.5-fold, 18.3 nM
- COc1cc2c(Oc3ccc(NC(=O)NCCC(C)(C)C)c(Cl)c3)ccnc2cc1OCCCN1CCN(C)CC1 [Compound 187, 1-(2-Chloro-4-{6-methoxy-7-[3-(4-methyl-piperazin-1-yl)-propoxy]-quinolin-4-yloxy}-phenyl)-3-(3,3-dimethyl-butyl)-urea] — within 1.5-fold, 22.3 nM
- COc1cc2c(Oc3ccc(NC(=O)NCCC(C)(C)C)c(Cl)c3)ccnc2cc1OCCCN1CCCN(C)CC1 [Compound 188, 1-(2-Chloro-4-{6-methoxy-7-[3-(4-methyl-[1,4]diazepan-1-yl)-propoxy]-quinolin-4-yloxy}-phenyl)-3-(3,3-dimethyl-butyl)-urea] — 1.7-fold higher, 29.9 nM
- COc1cc2c(Oc3ccc(NC(=O)NCCC(C)(C)C)c(Cl)c3)ccnc2cc1OCC1CCCNC1 (centres unmarked) [Compound 190, 1-{2-Chloro-4-[6-methoxy-7-(piperidin-3-ylmethoxy)-quinolin-4-yloxy]-phenyl}-3-(3,3-dimethyl-butyl)-urea] — 1.9-fold higher, 33.5 nM
- CCN(CC)CC(O)COc1cc2nccc(Oc3ccc(NC(=O)NCCC(C)(C)C)c(Cl)c3)c2cc1OC (centres unmarked) [Compound 191, 1-{2-Chloro-4-[7-(3-diethylamino-2-hydroxy-propoxy)-6-methoxy-quinolin-4-yloxy]-phenyl}-3-(3,3-dimethyl-butyl)-urea] — 1.6-fold lower, 10.6 nM
- COc1cc2c(Oc3ccc(NC(=O)NCCC(C)(C)C)c(Cl)c3)ccnc2cc1OCC(O)CN1CCCC1 (centres unmarked) [Compound 192, 1-{2-Chloro-4-[7-(2-hydroxy-3-pyrrolidin-1-yl-propoxy)-6-methoxy-quinolin-4-yloxy]-phenyl}-3-(3,3-dimethyl-butyl)-urea] — 1.9-fold lower, 9.1 nM
- COc1cc2c(Oc3ccc(NC(=O)NCCC(C)(C)C)c(Cl)c3)ccnc2cc1OCC(O)CN1CCCCC1 (centres unmarked) [Compound 193, 1-{2-Chloro-4-[7-(2-hydroxy-3-piperidin-1-yl-propoxy)-6-methoxy-quinolin-4-yloxy]-phenyl}-3-(3,3-dimethyl-butyl)-urea] — within 1.5-fold, 17.4 nM
- COc1cc2c(Oc3ccc(NC(=O)NCCC(C)(C)C)c(Cl)c3)ccnc2cc1OCC(O)CN1CCCCCC1 (centres unmarked) [Compound 194, 1-{4-[7-(3-Azepan-1-yl-2-hydroxy-propoxy)-6-methoxy-quinolin-4-yloxy]-2-chloro-phenyl}-3-(3,3-dimethyl-butyl)-urea] — within 1.5-fold, 19.7 nM
- COc1cc2c(Oc3ccc(NC(=O)NCCC(C)(C)C)c(Cl)c3)ccnc2cc1OCC(O)CN1CCOCC1 (centres unmarked) [Compound 195, 1-{2-Chloro-4-[7-(2-hydroxy-3-morpholin-4-yl-propoxy)-6-methoxy-quinolin-4-yloxy]-phenyl}-3-(3,3-dimethyl-butyl)-urea] — lower, < 10 nM
- COc1cc2c(Oc3ccc(NC(=O)NCCC(C)(C)C)c(Cl)c3)ccnc2cc1OC[C@@H](O)CN1CCOCC1 [Compound 197, 1-{2-Chloro-4-[7-(2-hydroxy-3-morpholin-4-yl-propoxy)-6-methoxy-quinolin-4-yloxy]-phenyl}-3-(3,3-dimethyl-butyl)-urea] — lower, < 10 nM
- CCNCC(O)COc1cc2nccc(Oc3ccc(NC(=O)NCCC(C)(C)C)c(Cl)c3)c2cc1OC (centres unmarked) [Compound 198, 1-{2-Chloro-4-[7-(3-ethylamino-2-hydroxy-propoxy)-6-methoxy-quinolin-4-yloxy]-phenyl}-3-(3,3-dimethyl-butyl)-urea] — within 1.5-fold, 12.3 nM
- COc1cc2c(Oc3ccc(NC(=O)NCCC(C)(C)C)c(Cl)c3)ccnc2cc1OCC(O)CN(C)C (centres unmarked) [Compound 199, 1-{2-Chloro-4-[7-(3-dimethylamino-2-hydroxy-propoxy)-6-methoxy-quinolin-4-yloxy]-phenyl}-3-(3,3-dimethyl-butyl)-urea] — lower, < 10 nM
- COc1cc2c(Oc3ccc(NC(=O)NCCC(C)(C)C)cc3)ccnc2cc1OCCCN1C[C@@H](C)O[C@@H](C)C1 [Compound 200, 1-(3,3-Dimethyl-butyl)-3-(4-{7-[3-(2,6-dimethyl-morpholin-4-yl)-propoxy]-6-methoxy-quinolin-4-yloxy}-phenyl)-urea] — within 1.5-fold, 21.1 nM
- COc1cc2c(Oc3ccc(NC(=O)NCCC(C)(C)C)c(Cl)c3)ccnc2cc1OC[C@H](O)CN1CCOCC1 [Compound 201, 1-{2-Chloro-4-[7-(2-hydroxy-3-morpholin-4-yl-propoxy)-6-methoxy-quinolin-4-yloxy]-phenyl}-3-(3,3-dimethyl-butyl)-urea] — lower, < 10 nM
- COc1cc2c(Oc3ccc(NC(=O)NCCC(C)(C)C)c(Cl)c3)ccnc2cc1OCCC1CCNCC1 [Compound 202, 1-{2-Chloro-4-[6-methoxy-7-(2-piperidin-4-yl-ethoxy)-quinolin-4-yloxy]-phenyl}-3-(3,3-dimethyl-butyl)-urea] — 1.6-fold higher, 28.5 nM
- COc1cc2c(Oc3ccc(NC(=O)NCCC(C)(C)C)c(F)c3)ccnc2cc1OCCCCl [Compound 204, 1-{4-[7-(3-Chloro-propoxy)-6-methoxy-quinolin-4-yloxy]-2-fluoro-phenyl}-3-(3,3-dimethyl-butyl)-urea] — 14-fold higher, 234 nM
- COc1cc2c(Oc3ccc(NC(=O)NCCC(C)(C)C)c(Cl)c3)ccnc2cc1OCCCN1CCOCC1 [Compound 205, 1-{2-Chloro-4-[6-methoxy-7-(3-morpholin-4-yl-propoxy)-quinolin-4-yloxy]-phenyl}-3-(3,3-dimethyl-butyl)-urea] — within 1.5-fold, 25.5 nM
- COc1cc2c(Oc3ccc(NC(=O)NCCC(C)(C)C)c(Cl)c3)ccnc2cc1OCC(O)CN1CCOCC1 (centres unmarked) [Compound 206, 1-{2-Chloro-4-[7-(2-hydroxy-3-morpholin-4-yl-propoxy)-6-methoxy-quinolin-4-yloxy]-phenyl}-3-(3,3-dimethyl-butyl)-urea] — within 1.5-fold, 18.5 nM
- COc1cc2c(Oc3ccc(NC(=O)NCCC(C)(C)C)c(Cl)c3)ccnc2cc1OCCCN1CCC(C)CC1 [Compound 207, 1-(2-Chloro-4-{6-methoxy-7-[3-(4-methyl-piperidin-1-yl)-propoxy]-quinolin-4-yloxy}-phenyl)-3-(3,3-dimethyl-butyl)-urea] — 3.5-fold higher, 60 nM
- COc1cc2c(Oc3ccc(NC(=O)NCCC(C)(C)C)c(Cl)c3)ccnc2cc1OCCCN1CCC[C@H]1CO [Compound 208, 1-(2-Chloro-4-{7-[3-(2-hydroxymethyl-pyrrolidin-1-yl)-propoxy]-6-methoxy-quinolin-4-yloxy}-phenyl)-3-(3,3-dimethyl-butyl)-urea] — 1.6-fold higher, 27 nM
- COc1cc2c(Oc3ccc(NC(=O)NCCC(C)(C)C)c(F)c3)ccnc2cc1OCC(O)CN1CCOCC1 (centres unmarked) [Compound 209, 1-(3,3-Dimethyl-butyl)-3-{2-fluoro-4-[7-(2-hydroxy-3-morpholin-4-yl-propoxy)-6-methoxy-quinolin-4-yloxy]-phenyl}-urea] — lower, < 10 nM
- COc1cc2c(Oc3ccc(NC(=O)NCCC(C)(C)C)c(F)c3)ccnc2cc1OCCCN1CCOCC1 [Compound 210, 1-(3,3-Dimethyl-butyl)-3-{2-fluoro-4-[6-methoxy-7-(3-morpholin-4-yl-propoxy)-quinolin-4-yloxy]-phenyl}-urea] — lower, < 10 nM
- COc1cc2c(Oc3ccc(NC(=O)NCCC(C)(C)C)c(Cl)c3)ccnc2cc1OCCO [Compound 211, 1-{2-Chloro-4-[7-(2-hydroxy-ethoxy)-6-methoxy-quinolin-4-yloxy]-phenyl}-3-(3,3-dimethyl-butyl)-urea] — lower, < 10 nM
- COc1cc2nccc(Oc3ccc(Nc4ccc(C(C)(C)C)cc4)cc3)c2cc1OCCN1CCOCC1 [Compound 212, (4-Tert-butyl-phenyl)-{4-[7-methoxy-6-(2-morpholin-4-yl-ethoxy)-quinolin-4-yloxy]-phenyl}-amine] — 7.9-fold higher, 137 nM
- COc1cc2nccc(Oc3ccc(Nc4ccc(C(C)(C)C)cc4)cc3)c2cc1OCC(O)CN1CCOCC1 (centres unmarked) [Compound 213, 1-{4-[4-(4-Tert-butyl-phenylamino)-phenoxy]-7-methoxy-quinolin-6-yloxy}-3-morpholin-4-yl-propan-2-ol] — 7.3-fold higher, 126 nM
- COc1cc2nccc(Oc3ccc(Nc4ccc(C(C)(C)C)cc4)cc3)c2cc1O [Compound 214, 4-[4-(4-Tert-butyl-phenylamino)-phenoxy]-7-methoxy-quinolin-6-ol] — 1.5-fold higher, 26.1 nM
- COC(=O)COc1cc2nccc(Oc3ccc(NC(=O)NCCC(C)(C)C)cc3)c2cc1OC [Compound 215, Methyl (4-{4-[3-(3,3-dimethyl-butyl)-ureido]-phenoxy}-6-methoxy-quinolin-7-yloxy)-acetate] — 20-fold higher, 341 nM
- COc1cc2c(Oc3ccc(Nc4ccc(C(C)(C)C)cc4)cc3)ccnc2cc1OCCCN1CCC(O)CC1 [Compound 216, 1-(3-{4-[4-(4-Tert-butyl-phenylamino)-phenoxy]-6-methoxy-quinolin-7-yloxy}-propyl)-piperidin-4-ol] — 10-fold higher, 174 nM
- COc1cc2c(Oc3ccc(Nc4ccc(C(C)(C)C)cc4)cc3)ccnc2cc1OCCCN1CCC(CO)CC1 [Compound 217, [1-(3-{4-[4-(4-Tert-butyl-phenylamino)-phenoxy]-6-methoxy-quinolin-7-yloxy}-propyl)-piperidin-4-yl]-methanol] — 2.4-fold higher, 40.9 nM
- COc1cc2c(Oc3ccc(Nc4ccc(C(C)(C)C)cc4)cc3)ccnc2cc1OCCCN1CCC(CCO)CC1 [Compound 218, 2-[1-(3-{4-[4-(4-Tert-butyl-phenylamino)-phenoxy]-6-methoxy-quinolin-7-yloxy}-propyl)-piperidin-4-yl]-ethanol] — 5.5-fold higher, 96 nM
- COc1cc2c(Oc3ccc(NC(=O)NCCC(C)(C)C)cc3)ccnc2cc1OCCN1CCC(CCO)CC1 [Compound 219, 1-(3,3-Dimethyl-butyl)-3-[4-(7-{2-[4-(2-hydroxy-ethyl)-piperidin-1-yl]-ethoxy}-6-methoxy-quinolin-4-yloxy)-phenyl]-urea] — lower, < 10 nM
